The record followed here is US9029389B2 (Institut Pasteur Korea, priority 2011, dated 2015).

The target in one data set is T1, Human 5-lipoxygenase (Homo sapiens, UniProt P09917).
T1 construct: purchased Cayman 60402; host or cells: insect cells
T1 sequence (P09917 1-674): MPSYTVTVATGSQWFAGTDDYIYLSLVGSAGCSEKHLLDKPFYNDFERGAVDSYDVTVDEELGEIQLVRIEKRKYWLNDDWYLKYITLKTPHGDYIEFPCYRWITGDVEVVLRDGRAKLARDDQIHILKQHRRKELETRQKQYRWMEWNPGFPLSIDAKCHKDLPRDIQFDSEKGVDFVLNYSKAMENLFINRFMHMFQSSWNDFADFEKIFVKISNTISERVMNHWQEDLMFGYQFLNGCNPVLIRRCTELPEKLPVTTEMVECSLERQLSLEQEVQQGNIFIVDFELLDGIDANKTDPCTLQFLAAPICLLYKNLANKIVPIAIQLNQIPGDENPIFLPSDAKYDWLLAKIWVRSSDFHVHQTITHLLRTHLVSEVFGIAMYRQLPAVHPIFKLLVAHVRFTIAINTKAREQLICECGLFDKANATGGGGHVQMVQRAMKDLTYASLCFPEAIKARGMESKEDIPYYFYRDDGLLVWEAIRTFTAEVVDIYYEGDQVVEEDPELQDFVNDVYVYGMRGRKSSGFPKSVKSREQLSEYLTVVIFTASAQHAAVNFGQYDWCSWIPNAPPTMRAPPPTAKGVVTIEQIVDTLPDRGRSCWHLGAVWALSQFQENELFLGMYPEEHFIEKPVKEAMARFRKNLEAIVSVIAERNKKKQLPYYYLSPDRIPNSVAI
The data set is described as follows: Activity of compounds against 5-LO enzyme (LTB4 measurement and/or fluorescence method). The class given is biochemical. The conditions noted are these: for inhibition at 10 µM: 5-LO, single concentration of 10 uM in duplicate; for IC50: 6 or 11 point dose response in duplicate. In short, it runs like this:
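Two read-outs: LTB4 measured by EIA and/or LC/MS/MS with LTB4-d4 standard after 15 min RT compound preincubation with insect-cell 5-LO and a 5 min 37 °C reaction on 3 uM arachidonic acid (0.1 mM ATP, pH 7.4). The room-temperature fluorescence format used 20 uM H2DCFDA, 100 uM ATP, 3 uM arachidonic acid, 5 min; IC50 from 6/11-point curves.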

As usually defined, the inhibition is how much of the control response was suppressed. Read a low inhibition as a response near the control. One may read the melting point as the temperature, or range, at which the solid turns liquid. `CCc1nc2ccc(Cl)cn2c1CO` [compound 146, (6-Chloro-2-ethylimidazo[1,2-a]pyridin-3-yl)methanol] registered a melting point of 173.2 to 174.2 °C. Further, the inhibition at 10 µM against Human 5-lipoxygenase is below 40%.
Usually IC50 stands for the midpoint of a concentration-inhibition curve. A lower IC50 goes with higher potency. The compound `CCc1nc2ccc(F)cn2c1C(=O)NC1CCN(c2ccc(Nc3ccccc3)cc2)C1` (stereo not drawn) [compound 403, 2-Ethyl-6-fluoro-N-(1-(4-(phenylamino)phenyl)pyrrolidin-3-yl)imidazo[1,2-a]pyridine-3-carboxamide] displayed a melting point of 224.7 °C. The IC50 at Human 5-lipoxygenase was below 1000 nM.
Regarding `CCc1nc2cc(Cl)ccn2c1C(=O)NCc1ccc(N2CCC3CCCCC3C2)cc1` (stereo not drawn) [compound 222, 7-Chloro-2-ethyl-N-(4-(octahydroisoquinolin-2(1H)-yl)benzyl)imidazo[1,2-a]pyridine-3-carboxamide], the melting point was 174.2 °C. This compound also registered an inhibition at 10 µM against Human 5-lipoxygenase below 40%.
The compound `CCc1nc2ncccn2c1C(=O)NCc1ccc(-c2ccc(Cl)cc2)cc1` [compound 386, N-((4′-Chloro-[1,1′-biphenyl]-4-yl)methyl)-2-ethylimidazo[1,2-a]pyrimidine-3-carboxamide] registered a melting point of 184.8 °C. This compound also yielded an IC50 at Human 5-lipoxygenase of 1000 to 20000 nM.
For the compound `CCc1nc2ccc(Cl)cn2c1C(=O)NCc1ccc(C(F)(F)F)cc1` [compound 135, 6-Chloro-2-ethyl-N-(4-(trifluoromethyl)benzyl)imidazo[1,2-a]pyridine-3-carboxamide], the melting point lay in the range of 179 to 180 °C. Moreover, the inhibition at 10 µM against Human 5-lipoxygenase was below 40%.
In turn, `CCc1nc2ccc(Cl)cn2c1-c1nc(Cc2ccc(OC(F)(F)F)cc2)no1` [compound 165, 5-(6-Chloro-2-ethylimidazo[1,2-a]pyridin-3-yl)-3-(4-(trifluoromethoxy)benzyl)-1,2,4-oxadiazole] came in with a melting point of 146.4 to 146.9 °C. Moreover, at Human 5-lipoxygenase, the inhibition at 10 µM is below 40%.
`CCc1nc2ccc(Cl)cn2c1C(=O)N1CCC(Oc2ccc(OC(F)(F)F)cc2)CC1` [compound 384, (6-Chloro-2-ethylimidazo[1,2-a]pyridin-3-yl)(4-(4-(trifluoromethoxy)phenoxy)piperidin-1-yl)methanone]: the melting point amounted to 80.7 °C. For the same compound, the IC50 against Human 5-lipoxygenase lay within 1000 to 20000 nM.
Compound `CCc1nc2ccc(Cl)cn2c1C(=O)NCCc1ccc(Cl)cc1` [compound 137, 6-Chloro-N-(4-chlorophenethyl)-2-ethylimidazo[1,2-a]pyridine-3-carboxamide] came in with a melting point of 158 to 159 °C. This compound also registered an inhibition at 10 µM against Human 5-lipoxygenase of 40 to 69%.
On the same counts, the results for `CCc1nc2cc(Cl)ccn2c1C(=O)NCc1ccc(N2CCC(CO)CC2)cc1` [compound 212, 7-Chloro-2-ethyl-N-(4-(4-(hydroxymethyl)piperidin-1-yl)benzyl)imidazo[1,2-a]pyridine-3-carboxamide] are 179.8 °C and below 40%.
Compound `CCc1nc2ccc(Cl)cn2c1C(=O)NCc1nc2ccc(Cl)cc2o1` [compound 369, 6-chloro-N-((6-chlorobenzo[d]oxazol-2-yl)methyl)-2-ethylimidazo[1,2-a]pyridine-3-carboxamide] had a melting point of 201.1 to 201.8 °C. Besides, the inhibition at 10 µM against Human 5-lipoxygenase was below 40%.
For `CCc1nc2cc(Cl)ccn2c1C(=O)NCc1ccc(N2CC(Cc3ccc(F)cc3)OC2=O)cc1` (stereo not drawn) [compound 377, 7-chloro-2-ethyl-N-(4-(5-(4-fluorobenzyl)-2-oxooxazolidin-3-yl)benzyl)imidazo[1,2-a]pyridine-3-carboxamide], in that order: > 96.9 °C (dec.) and below 40%.
As for `CCc1nc2ccc(Cl)cn2c1C(=O)NCc1ccc(N2CCC3CCCCC3C2)cc1` (stereo not drawn) [compound 221, 6-Chloro-2-ethyl-N-(4-(octahydroisoquinolin-2(1H)-yl)benzyl)imidazo[1,2-a]pyridine-3-carboxamide], the melting point amounted to 141.7 °C. Besides, at Human 5-lipoxygenase, the inhibition at 10 µM is below 40%.
On the same counts, the results for `CCc1nc2ccc(Cl)cn2c1C(=O)OCc1ccc(-c2ccccc2)cc1` [compound 162, [1,1′-Biphenyl]-4-ylmethyl 6-chloro-2-ethylimidazo[1,2-a]pyridine-3-carboxylate] are 122.3 to 123 °C and 40 to 69%.
Compound `CCc1nc2cc(Cl)ccn2c1C(=O)NCc1ccc(N2CCC(Cc3ccccc3)CC2)cc1` [compound 208, N-(4-(4-Benzylpiperidin-1-yl)benzyl)-7-chloro-2-ethylimidazo[1,2-a]pyridine-3-carboxamide] gave a melting point of 63.8 °C. On Human 5-lipoxygenase, the inhibition at 10 µM was above 69% and the IC50 lay in the range of 1000 to 20000 nM.
Consider `CCc1nc2c(OC(F)F)cccn2c1C(=O)NCc1ccc(N2CCN(c3ccc(F)cc3)CC2)cc1` [compound 278, 8-(Difluoromethoxy)-2-ethyl-N-(4-(4-(4-fluorophenyl)piperazin-1-yl)benzyl)imidazo[1,2-a]pyridine-3-carboxamide], for which the melting point was 186.3 °C. At Human 5-lipoxygenase, this compound returned an inhibition at 10 µM of 40 to 69%.
For `CCc1nc2cc(Cl)ccn2c1C(=O)NCc1ccc(N2CCC(F)(F)CC2)cc1` [compound 236, 7-Chloro-N-(4-(4,4-difluoropiperidin-1-yl)benzyl)-2-ethylimidazo[1,2-a]pyridine-3-carboxamide], in that order: 166.3 °C and 40 to 69%.
In turn, `CCc1nc2ccc(F)cn2c1C(=O)NCc1ccc(Oc2ccc(OC(F)(F)F)cc2)cc1` [compound 225, 2-Ethyl-6-fluoro-N-(4-(4-(trifluoromethoxy)phenoxy)benzyl)imidazo[1,2-a]pyridine-3-carboxamide] showed a melting point of 133.4 °C. At Human 5-lipoxygenase, this compound registered an inhibition at 10 µM above 69% and an IC50 below 1000 nM.
`CCc1nc2ccc(Cl)cn2c1C(=O)NC1CCN(Cc2ccc(OC(F)(F)F)cc2)CC1` [compound 309, 6-Chloro-2-ethyl-N-(1-(4-(trifluoromethoxy)benzyl)piperidin-4-yl)imidazo[1,2-a]pyridine-3-carboxamide] returned a melting point of 157 to 158 °C. On Human 5-lipoxygenase, this compound had an inhibition at 10 µM of 40 to 69% and an IC50 of 1000 to 20000 nM.
On the same counts, the results for `CCc1nc2cc(C)ccn2c1C(=O)NCc1ccc(Oc2ccc(OC(F)(F)F)cc2)cc1` [compound 219, 2-Ethyl-7-methyl-N-(4-(4-(trifluoromethoxy)phenoxy)benzyl)imidazo[1,2-a]pyridine-3-carboxamide] are 133.6 °C, above 69% and below 1000 nM.
Compound `CCc1nc2ccc(OC)cn2c1C(=O)NCc1ccc(N2CCN(c3ccc(F)cc3)CC2)cc1` [compound 271, 2-Ethyl-N-(4-(4-(4-fluorophenyl)piperazin-1-yl)benzyl)-6-methoxyimidazo[1,2-a]pyridine-3-carboxamide] came in with a melting point of 173.8 °C. Further, the inhibition at 10 µM on Human 5-lipoxygenase was in the range of 40 to 69%.
On the same counts, the results for `CCc1nc2ccc(Cl)cn2c1C(=O)NCc1cc2cc(Cl)ccc2o1` [compound 366, 6-chloro-N-((5-chlorobenzofuran-2-yl)methyl)-2-ethylimidazo[1,2-a]pyridine-3-carboxamide] are 223.5 to 225.6 °C and below 40%.
On the same counts, the results for `CCc1nc2ccc(Br)cn2c1C(=O)NCc1ccc(N2CCN(c3ccc(F)cc3)CC2)cc1` [compound 229, 6-Bromo-2-ethyl-N-(4-(4-(4-fluorophenyl)piperazin-1-yl)benzyl)imidazo[1,2-a]pyridine-3-carboxamide] are 218.1 °C and below 40%.
For `CCc1nc2ccc(Cl)cn2c1C(=O)NCc1ccc(Oc2ccc(Cl)cc2)cc1` [compound 160, 6-Chloro-N-(4-(4-chlorophenoxy)benzyl)-2-ethylimidazo[1,2-a]pyridine-3-carboxamide], in that order: 159 to 160.7 °C and 40 to 69%.
The compound `CCc1nc2ccc(Cl)cn2c1C(=O)NCc1ccc2oc(C3CCCCC3)nc2c1` [compound 298, 6-Chloro-N-((2-cyclohexylbenzo[d]oxazol-5-yl)methyl)-2-ethylimidazo[1,2-a]pyridine-3-carboxamide] yielded a melting point of 169.7 °C. At Human 5-lipoxygenase, this compound gave an inhibition at 10 µM above 69% and an IC50 of 1000 to 20000 nM.
For the compound `CCc1nc2cc(Cl)ccn2c1C(=O)NCc1ccc(N2CCC(C(F)(F)F)CC2)cc1` [compound 234, 7-Chloro-2-ethyl-N-(4-(4-(trifluoromethyl)piperidin-1-yl)benzyl)imidazo[1,2-a]pyridine-3-carboxamide], the melting point worked out at 209.4 °C. The compound further gave an inhibition at 10 µM at Human 5-lipoxygenase below 40%.
Compound `CCc1nc2cc(Cl)ccn2c1C(=O)NCc1ccc(N2CCC(O)CC2)cc1` [compound 199, 7-Chloro-2-ethyl-N-(4-(4-hydroxypiperidin-1-yl)benzyl)imidazo[1,2-a]pyridine-3-carboxamide] registered a melting point of 179.1 to 180 °C. Besides, the inhibition at 10 µM at Human 5-lipoxygenase was below 40%.
